Assay results as given in patent US20060116407A1, “Amide derivatives” (priority 2004, published 2006).
pIC50: −log10 of the molar value.

System: HEK293 cells
Test: Viability assay of HEK293 cells (CellTiter-Glo)
Format: cell-based
Details: Homo sapiens, 168 h, 7 days, 3 μM to 0.00015 μM, luminescence
Description: Viability Assay of HEK293 Cells
A viability assay was performed using the CellTiter-Glo™ Luminescent Cell Viability Assay (see Promega Corporation's Technical Publication No. 288, pp. 1-11 [revised 2.04] which is hereby incorporated by reference in its entirety). This assay is a homogeneous method of determining the number of viable cells in culture based on quantitation of the ATP present, which signals the presence of metabolically active cells. The assay is designed for use with multiwell formats, making it ideal for automated high-throughput screening (HTS), cell proliferation and cytotoxicity assays. The homogeneous assay procedure involves adding a single reagent (containing luciferase, luciferan substrate, and buffer) directly to cells cultured in serum-supplemented medium. Cell washing, removal of medium and multiple pipetting steps are not required. The system detects as few as 15 cells/well in a 384-well format in 10 minutes after adding reagent and mixing.
The homogeneous “add-mix-measure” format results in cell lysis and generation of a luminescent signal proportional to the amount of ATP present. The amount of ATP is directly proportional to the number of cells present in culture. The above-referenced assay generates a “glow-type” luminescent signal, produced by the luciferase reaction, which has a half-life generally greater than five hours, depending on cell type and medium used. The extended half-life eliminates the need to use reagent injectors and provides flexibility for continuous or batch mode processing of multiple plates. The unique homogeneous format avoids errors that may be introduced by other ATP measurement methods that require multiple steps.
HEK293 cells (human embryonic kidney cell line transformed by Adenovirus 5 fragments, ATCC-No. CRL 1573) were cultivated in Dulbecco's Modified Eagle Medium (DMEM) (1×) liquid (high glucose) (which includes L-Alanyl-L-Glutamine [a stabilized a form of L-Glutamine], 4500 mg/L glucose, and 110 mg/L sodium pyruvate) from Invitrogen Corporation (Invitrogen Catalog Number 31966-021 [now 10569-010] which is hereby incorporated by reference in its entirety), 5% Fetal Calf Serum (FCS, Sigma Cat-No. F4135 (FBS) which is hereby incorporated by reference in its entirety), and 100 Units/ml penicillin/100 μg/ml streptomycin(=Pen/Strep from Invitrogen Cat. No. 15140 which is hereby incorporated by reference in its entirety). For the assay the cells were seeded in 384 well plates, 5000 cells per well, in the same medium. The next day the test compounds were added in various concentrations ranging from 3 μM to 0.00015 μM (10 concentrations, 1:3 diluted). After 7 days the above viability assay was performed in accordance with the following steps: • Step 1: The cell-plate was equilibrated to room temperature for approximately 30 minutes and than the assay reagent was added. • Step 2: The contents were carefully mixed for 15 minutes to induce cell lysis. • Step 3: After 45 minutes the luminescent signal was measured in Victor 2, (scanning multiwell spectrophotometer, Wallac). Details: 1st Day: • Medium: Dulbecco's Modified Eagle Medium (DMEM) (1×) liquid (high glucose) (which includes L-Alanyl-L-Glutamine [a stabilized a form/source of L-Glutamine], 4500 mg/L glucose, and 110 mg/L sodium pyruvate) from Invitrogen Corporation (Invitrogen Catalog Number 31966-021 [now 10569-010]), 5% Fetal Calf Serum (FCS, Sigma Cat-No. F4135 (FBS)), and Pen/Strep (Invitrogen Cat. No. 15140). • HEK293 (ATCC-No. CRL 1573): 5000 cells in 60 μl per well of 384 well plate. (Greiner 781098, white plates) • Incubate 24 h at 37° C., 5% CO2 2nd Day: Induction (Substance Testing):
In general the dilution steeps are 1:3 a) Add 8 μl of 10 mM stock solution of compound to 72 μl DMSO b) dilute 9×1:3 (always 30 μl to 60 μl DMSO) in this DMSO dilution row (results in 10 wells with concentrations from 1000 μM to 0.06 μM) c) dilute each concentration 1: 4.8 (10 μl compound dilution to 38 μl medium) […]

**Q.** How did the pIC50 turn out when `CN(C(=O)c1coc(COc2ccc(CCCCn3ccnn3)cc2)n1)c1ccccc1` [Example 29, 2-[4-(4-[1,2,3]Triazol-1-yl-butyl)-phenoxymethyl]-oxazole-4-carboxylic acid methyl-phenyl-amide] was run?
**A.** Its pIC50 is 5.52 to 6.30.

**Q.** How did the pIC50 turn out when `O=C(Nc1nc(COc2ccc(CCCCn3ccnn3)cc2)cs1)c1cc(F)ccc1F` [Example 52-15, 2,5-Difluoro-N-{4-[4-(4-[1,2,3]triazol-1-yl-butyl)-phenoxymethyl]-thiazol-2-yl}-benzamide] was run?
**A.** Its pIC50 is 6.30 to 8.30.

**Q.** With `O=C(Nc1ccc(F)c([N+](=O)[O-])c1)c1coc(COc2ccc(CCCCn3ccnn3)cc2)n1` [Example 21, 2-[4-(4-[1,2,3]Triazol-1-yl-butyl)-phenoxymethyl]-oxazole-4-carboxylic acid (4-fluoro-3-nitro-phenyl)-amide] as the molecule, how does the pIC50 read?
**A.** The pIC50 was 6.30 to 8.30.

**Q.** How did the pIC50 turn out when `O=C(Nc1nc(COc2ccc(CCCCn3ccnn3)cc2)cs1)c1cccc(C(F)(F)F)c1` [Example 52-2, N-{4-[4-(4-[1,2,3]Triazol-1-yl-butyl)-phenoxymethyl]-thiazol-2-yl}-3-trifluoromethyl-benzamide] was run?
**A.** Its pIC50 is 5.52 to 6.30.

**Q.** `O=C(Nc1ccc(SC(F)F)cc1)c1coc(COc2ccc(CCCCn3ccnn3)cc2)n1` [Example 8, 2-[4-(4-[1,2,3]Triazol-1-yl-butyl)-phenoxymethyl]-oxazole-4-carboxylic acid (4-difluoromethylsulfanyl-phenyl)-amide] was tested. Which pIC50 did it give?
**A.** Its pIC50 is 6.30 to 8.30.

**Q.** `O=C(Nc1ccc(F)c(Cl)c1)c1coc(COc2ccc(CCCCn3ccnn3)cc2)n1` [Example 12, 2-[4-(4-[1,2,3]Triazol-1-yl-butyl)-phenoxymethyl]-oxazole-4-carboxylic acid (3-chloro-4-fluoro-phenyl)-amide] was tested. Which pIC50 did it give?
**A.** The pIC50 was 6.30 to 8.30.

**Q.** How did the pIC50 turn out when `Cc1cc(OCc2nc(C(=O)Nc3ccc(C(F)(F)F)cc3)co2)ccc1CCCCn1ccnn1` [Example 46, 2-[3-Methyl-4-(4-[1,2,3]triazol-1-yl-butyl)-phenoxymethyl]-oxazole-4-carboxylic acid (4-trifluoromethyl-phenyl)-amide] was run?
**A.** The pIC50 was 6.30 to 8.30.

**Q.** With `O=C(Nc1ccccc1F)c1coc(COc2ccc(CCCCn3ccnn3)cc2)n1` [Example 33, 2-[4-(4-[1,2,3]Triazol-1-yl-butyl)-phenoxymethyl]-oxazole-4-carboxylic acid (2-fluoro-phenyl)-amide] as the molecule, how does the pIC50 read?
**A.** Its pIC50 is 6.30 to 8.30.

**Q.** How did the pIC50 turn out when `O=C(Nc1nc(COc2ccc(CCCCn3ccnn3)cc2)cs1)c1ccc(Cl)c(Cl)c1` [Example 52-9, 3,4-Dichloro-N-{4-[4-(4-[1,2,3]triazol-1-yl-butyl)-phenoxymethyl]-thiazol-2-yl}-benzamide] was run?
**A.** Its pIC50 is 6.30 to 8.30.

**Q.** With `O=C(Nc1nc(COc2ccc(CCCCn3ccnn3)cc2)cs1)c1ccccc1Cl` [Example 52-16, 2-Chloro-N-{4-[4-(4-[1,2,3]triazol-1-yl-butyl)-phenoxymethyl]-thiazol-2-yl}-benzamide] as the molecule, how does the pIC50 read?
**A.** The pIC50 was 5.52 to 6.30.

**Q.** With `O=C(Nc1ccc(Cl)c(C(F)(F)F)c1)c1coc(COc2ccc(CCCCn3ccnn3)cc2)n1` [Example 27, 2-[4-(4-[1,2,3]Triazol-1-yl-butyl)-phenoxymethyl]-oxazole-4-carboxylic acid (4-chloro-3-trifluoromethyl-phenyl)-amide] as the molecule, how does the pIC50 read?
**A.** Its pIC50 is 6.30 to 8.30.

**Q.** With `O=C(Nc1ccc(C(F)(F)F)cc1[N+](=O)[O-])c1coc(COc2ccc(CCCCn3ccnn3)cc2)n1` [Example 4, 2-[4-(4-[1,2,3]Triazol-1-yl-butyl)-phenoxymethyl]-oxazole-4-carboxylic acid (2-nitro-4-trifluoromethyl-phenyl)-amide] as the molecule, how does the pIC50 read?
**A.** The pIC50 was 6.90.

**Q.** With `O=C(Nc1nc(COc2ccc(CCCCn3ccnn3)cc2)cs1)c1cc(F)cc(F)c1` [Example 52-23, 3,5-Difluoro-N-{4-[4-(4-[1,2,3]triazol-1-yl-butyl)-phenoxymethyl]-thiazol-2-yl}-benzamide] as the molecule, how does the pIC50 read?
**A.** Its pIC50 is 6.30 to 8.30.

**Q.** With `O=C(Nc1c(Cl)cccc1Cl)c1coc(COc2ccc(CCCCn3ccnn3)cc2)n1` [Example 44, 2-[4-(4-[1,2,3]Triazol-1-yl-butyl)-phenoxymethyl]-oxazole-4-carboxylic acid (2,6-dichloro-phenyl)-amide] as the molecule, how does the pIC50 read?
**A.** The pIC50 was 6.30 to 8.30.

**Q.** `O=C(Nc1nc(COc2ccc(CCCCn3ccnn3)cc2)cs1)c1ccc(SC(F)(F)F)cc1` [Example 52-7, N-{4-[4-(4-[1,2,3]Triazol-1-yl-butyl)-phenoxymethyl]-thiazol-2-yl}-4-trifluoromethylsulfanyl-benzamide] was tested. Which pIC50 did it give?
**A.** The pIC50 was 6.30 to 8.30.

**Q.** `Cc1c(F)cccc1NC(=O)c1coc(COc2ccc(CCCCn3ccnn3)cc2)n1` [Example 20, 2-[4-(4-[1,2,3]Triazol-1-yl-butyl)-phenoxymethyl]-oxazole-4-carboxylic acid (3-fluoro-2-methyl-phenyl)-amide] was tested. Which pIC50 did it give?
**A.** Its pIC50 is 5.52 to 6.30.

**Q.** With `O=C(Nc1nc(COc2ccc(CCCCn3ccnn3)cc2)cs1)c1ccc([N+](=O)[O-])cc1` [Example 52-1, 4-Nitro-N-{4-[4-(4-[1,2,3]triazol-1-yl-butyl)-phenoxymethyl]-thiazol-2-yl}-benzamide] as the molecule, how does the pIC50 read?
**A.** Its pIC50 is 6.30 to 8.30.

**Q.** With `Cc1ccc(C(=O)Nc2nc(COc3ccc(CCCCn4ccnn4)cc3)cs2)cc1` [Example 52-14, 4-Methyl-N-{4-[4-(4-[1,2,3]triazol-1-yl-butyl)-phenoxymethyl]-thiazol-2-yl}-benzamide] as the molecule, how does the pIC50 read?
**A.** Its pIC50 is 6.30 to 8.30.

**Q.** With `O=C(Nc1nc(COc2ccc(CCCCn3ccnn3)cc2)cs1)c1ccc(OC(F)(F)F)cc1` [Example 52-4, N-{4-[4-(4-[1,2,3]Triazol-1-yl-butyl)-phenoxymethyl]-thiazol-2-yl}-4-trifluoromethoxy-benzamide] as the molecule, how does the pIC50 read?
**A.** Its pIC50 is 6.30 to 8.30.

**Q.** How did the pIC50 turn out when `CSc1ccc(NC(=O)c2coc(COc3ccc(CCCCn4ccnn4)cc3)n2)cc1` [Example 24, 2-[4-(4-[1,2,3]Triazol-1-yl-butyl)-phenoxymethyl]-oxazole-4-carboxylic acid (4-methylsulfanyl-phenyl)-amide] was run?
**A.** Its pIC50 is 5.97.

**Q.** How did the pIC50 turn out when `O=C(Nc1nc(COc2ccc(CCCCn3ccnn3)cc2)cs1)c1cccc(Cl)c1` [Example 52-12, 3-Chloro-N-{4-[4-(4-[1,2,3]triazol-1-yl-butyl)-phenoxymethyl]-thiazol-2-yl}-benzamide] was run?
**A.** Its pIC50 is 6.30 to 8.30.

**Q.** With `O=C(Nc1nc(COc2ccc(CCCCn3ccnn3)cc2)cs1)c1ccc(Cl)c(F)c1` [Example 52-6, 4-Chloro-3-fluoro-N-{4-[4-(4-[1,2,3]triazol-1-yl-butyl)-phenoxymethyl]-thiazol-2-yl}-benzamide] as the molecule, how does the pIC50 read?
**A.** The pIC50 was 6.30 to 8.30.

**Q.** How did the pIC50 turn out when `Cc1cc(F)ccc1NC(=O)c1coc(COc2ccc(CCCCn3ccnn3)cc2)n1` [Example 25, 2-[4-(4-[1,2,3]Triazol-1-yl-butyl)-phenoxymethyl]-oxazole-4-carboxylic acid (4-fluoro-2-methyl-phenyl)-amide] was run?
**A.** The pIC50 was 6.30 to 8.30.

**Q.** With `O=C(Nc1nc(COc2ccc(CCCCn3ccnn3)cc2)cs1)c1ccc(F)c(Cl)c1` [Example 52-19, 3-Chloro-4-fluoro-N-{4-[4-(4-[1,2,3]triazol-1-yl-butyl)-phenoxymethyl]-thiazol-2-yl}-benzamide] as the molecule, how does the pIC50 read?
**A.** Its pIC50 is 6.30 to 8.30.

**Q.** How did the pIC50 turn out when `O=C(Nc1nc(COc2ccc(CCCCn3ccnn3)cc2)cs1)c1ccc(OC(F)F)cc1` [Example 52-22, 4-Difluoromethoxy-N-{4-[4-(4-[1,2,3]triazol-1-yl-butyl)-phenoxymethyl]-thiazol-2-yl}-benzamide] was run?
**A.** Its pIC50 is 6.30 to 8.30.

**Q.** With `O=C(Nc1ccc(Cl)cc1)c1csc(COc2ccc(CCCCn3ccnn3)cc2)n1` [Example 42, 2-[4-(4-[1,2,3]Triazol-1-yl-butyl)-phenoxymethyl]-thiazole-4-carboxylic acid (4-chloro-phenyl)-amide] as the molecule, how does the pIC50 read?
**A.** The pIC50 was 6.30 to 8.30.
